# According to US11369556B2, “Oral care composition comprising rottlerin” (Colgate-Palmolive Company, priority 2017, dated 2022):
# Assays:
# [1] = test system: mixed species, equal amounts of S. oralis, S. mutans, and A. viscosus; test: 10-hour bacterial growth, optical density readings, mixed species; type: cell-based
# Procedure: (§1) In particular, Tables 1-3 illustrate 10-hour bacterial growth in terms of optical density (OD) readings taken at one-hour intervals, where the density readings represent the amount of bacteria present.
# (§2) The bacterial cultures were grown overnight and standardized to a 0.05 OD reading, after which, different concentrations of rottlerin were added, and the bacterial growth was monitored hourly for 10 hours using a plate reader.
# Finally, Table 3 illustrates three examples of mixed species bacterial growth, including equal amounts of S. oralis, S. mutans, and A. viscosus species: an untreated growth, a growth of the mixed species after treatment with 10 μM of rottlerin, and a growth of the mixed species after treatment with 20 μM of rottlerin.
# S. oralis [2] = test: 10-hour bacterial growth, optical density readings, S. oralis; type: cell-based, Streptococcus oralis
# Procedure: as §1, §2
# Table 1 illustrates three examples of S. oralis bacterial growth: one showing the untreated growth of S. oralis, another showing the growth of S. oralis after treatment with 10 μM of rottlerin, and a final example showing the growth of S. oralis after treatment with 20 μM of rottlerin.
# S. oralis [3] = test: Metabolic activity of S. oralis, ATP assay; type: cell-based, Streptococcus oralis; settings: for Reduction of Metabolic Activity: incubated 1 hour at 37° C.
# Procedure: (§3) S. ovalis is a representative streptococcus species of bacteria that colonize the oral cavity and may serve as a representative species for the efficacy of antimicrobial agents. Table 4 (below) illustrates the effects of rottlerin on the metabolic activity and cell viability of S. ovalis when treated with various concentrations of rottlerin. The metabolic activity of the S. ovalis bacteria was measured through ATP assays, and the cell viability was measured using a resazurin assay.
# Similarly, the metabolic activity was measured through an ATP assay as follows: A culture of S. oralis bacteria was grown and standardized to a 610˜0.6 OD. 500 μl of the S. ovalis bacteria culture was then transferred to a clean and sterile micro-centrifuge tube and treated as above. Three 100 μl samples from each tube were then individually plated in individual wells of a 96-well plate and 100 μl of Bactitre glow ATP reagent was added. The metabolic activity of the S. oralis bacteria was then monitored by measuring luminescence, with an increase in luminescence correlating with higher metabolic cells.
# S. oralis [4] = test: Cell viability of S. oralis, resazurin assay; type: cell-based, Streptococcus oralis; settings: for Cell Viability: incubated 1 hour at 37° C.
# Procedure: as §3
# In particular, the cell viability of S. oralis was measured through a resazurin assay as follows: A culture of S. oralis bacteria was grown and standardized to a 610˜0.6 OD. 500 μl of the S. oralis bacteria culture was then transferred to a clean and sterile micro-centrifuge tube. The tube was then centrifuged at greater than 15,000 g for 10 minutes to pellet the bacteria. The tube samples were then treated with different amounts of rottlerin and resuspended in 1 ml of 0.25× Trypticase soy broth (TSB) in water. Control and dead samples were created by resuspending the pellet bacteria in sterile media or 100% ethanol, and without adding rottlerin. The tubes were then inverted 3 times for mixing and incubated at 37° C. for 1 hour. Afterwards, 1 ml of D/E neutralizing broth was added to each tube and the samples in the tubes were then washed and stained. The tubes were then centrifuged at greater than 15,000 g for 10 minutes to pellet the bacteria again. The supernate was then removed and the bacteria was resuspended in 1 ml of sterile 0.25× TSB wash. Three 100 μl samples from each tube were then each individually plated in individual wells of a 96-well plate. The samples were then prepared for a standard analytic curve by combining fixed ratios of the live and dead control samples. 100 μl of the resazurin dye solution were then added to each well, and the 96-well plate was then incubated at 37° C. until the live control samples turned the appropriate pink color. A fluorescence plate reader was then used to read the fluorescence of the resazurin dye at 560 nm excitation/590 nm emission, and a percentage of live and dead cells was then calculated.
# A. viscosus = test: 10-hour bacterial growth, optical density readings, A. viscosus; type: cell-based, Actinomyces viscosus
# Procedure: as §1, §2
# Table 2 illustrates three examples of A. viscosus bacterial growth: an untreated A. viscosus growth, a growth of A. viscosus after treatment with 10 μM of rottlerin, and a growth of A. viscosus after treatment with 20 μM of rottlerin.
# [5] = low concentrations of rottlerin
compound,measurement,setting,value
"CC(=O)c1c(O)c(C)c(O)c(Cc2c(O)c3c(c(C(=O)/C=C/c4ccccc4)c2O)OC(C)(C)C=C3)c1O [rottlerin, 5,7-dihydro-2,2-dimethyl-6-(2,4,6-trihydroxy-3-methyl-5-acetylbenzyl)-8-cinnamoyl-1,2-chromene]",Mixed species growth (OD),"[1]; 10 μM, exposure time 1 hour",0.088 OD
same,Mixed species growth (OD),"[1]; 10 μM, exposure time 3 hours",0.083 OD
same,Mixed species growth (OD),"[1]; 10 μM, exposure time 4 hours",0.081 OD
same,Mixed species growth (OD),"[1]; 10 μM, exposure time 5 hours",0.082 OD
same,Mixed species growth (OD),"[1]; 10 μM, exposure time 6 hours",0.079 OD
same,Mixed species growth (OD),"[1]; 10 μM, exposure time 7 hours",0.076 OD
same,Mixed species growth (OD),"[1]; 10 μM, exposure time 8 hours",0.073 OD
same,Mixed species growth (OD),"[1]; 10 μM, exposure time 9 hours (head of second time column, c2)",0.085 OD
same,Mixed species growth (OD),"[1]; 10 μM, exposure time 10 hours",0.070 OD
same,Mixed species growth (OD),"[1]; 20 μM, exposure time 1 hour",0.089 OD
same,Mixed species growth (OD),"[1]; 20 μM, exposure time 3 hours",0.090 OD
same,Mixed species growth (OD),"[1]; 20 μM, exposure time 4 hours",0.089 OD
same,Mixed species growth (OD),"[1]; 20 μM, exposure time 5 hours",0.088 OD
same,Mixed species growth (OD),"[1]; 20 μM, exposure time 6 hours",0.085 OD
same,Mixed species growth (OD),"[1]; 20 μM, exposure time 7 hours",0.082 OD
same,Mixed species growth (OD),"[1]; 20 μM, exposure time 8 hours",0.076 OD
same,Mixed species growth (OD),"[1]; 20 μM, exposure time 9 hours (head of second time column, c2)",0.091 OD
same,Mixed species growth (OD),"[1]; 20 μM, exposure time 10 hours",0.071 OD
same,growth of bacteria compared to an untreated control,"[1]; mixed species, low concentrations of rottlerin (Table 3)",significantly reduced
same,S. oralis growth (OD),"S. oralis [2]; 10 μM, exposure time 1 hour",0.10 OD
same,S. oralis growth (OD),"S. oralis [2]; 10 μM, exposure time 2 hours",0.095 OD
same,S. oralis growth (OD),"S. oralis [2]; 10 μM, exposure time 3 hours",0.091 OD
same,S. oralis growth (OD),"S. oralis [2]; 10 μM, exposure time 4 hours",0.088 OD
same,S. oralis growth (OD),"S. oralis [2]; 10 μM, exposure time 5 hours",0.089 OD
same,S. oralis growth (OD),"S. oralis [2]; 10 μM, exposure time 6 hours",0.091 OD
same,S. oralis growth (OD),"S. oralis [2]; 10 μM, exposure time 7 hours",0.088 OD
same,S. oralis growth (OD),"S. oralis [2]; 10 μM, exposure time 8 hours",0.075 OD
same,S. oralis growth (OD),"S. oralis [2]; 10 μM, exposure time 9 hours",0.075 OD
same,S. oralis growth (OD),"S. oralis [2]; 10 μM, exposure time 10 hours",0.074 OD
same,S. oralis growth (OD),"S. oralis [2]; 20 μM, exposure time 1 hour",0.098 OD
same,S. oralis growth (OD),"S. oralis [2]; 20 μM, exposure time 2 hours",0.099 OD
same,S. oralis growth (OD),"S. oralis [2]; 20 μM, exposure time 3 hours",0.089 OD
same,S. oralis growth (OD),"S. oralis [2]; 20 μM, exposure time 4 hours",0.088 OD
same,S. oralis growth (OD),"S. oralis [2]; 20 μM, exposure time 5 hours",0.091 OD
same,S. oralis growth (OD),"S. oralis [2]; 20 μM, exposure time 6 hours",0.090 OD
same,S. oralis growth (OD),"S. oralis [2]; 20 μM, exposure time 7 hours",0.090 OD
same,S. oralis growth (OD),"S. oralis [2]; 20 μM, exposure time 8 hours",0.081 OD
same,S. oralis growth (OD),"S. oralis [2]; 20 μM, exposure time 9 hours",0.080 OD
same,S. oralis growth (OD),"S. oralis [2]; 20 μM, exposure time 10 hours",0.079 OD
same,growth of bacteria compared to an untreated control,"S. oralis [2]; S. oralis, low concentrations of rottlerin (Table 1)",significantly reduced
same,Reduction of Metabolic Activity,S. oralis [3]; Rottlerin Amt. 0.25 μg,40%
same,Reduction of Metabolic Activity,S. oralis [3]; Rottlerin Amt. 1.25 μg,51%
same,Reduction of Metabolic Activity,S. oralis [3]; Rottlerin Amt. 2.5 μg,60%
same,Reduction of Metabolic Activity,S. oralis [3]; Rottlerin Amt. 5 μg,61%
same,Reduction of Metabolic Activity,S. oralis [3]; Rottlerin Amt. 10 μg,72%
same,Reduction of Metabolic Activity,S. oralis [3]; Rottlerin Amt. 12.5 μg,75%
same,metabolic activity of S. oralis,S. oralis [3]; [5],significantly negatively affected
same,Cell Viability,S. oralis [4]; Rottlerin Amt. 0.25 μg,79.5%
same,Cell Viability,S. oralis [4]; Rottlerin Amt. 1.25 μg,61%
same,Cell Viability,S. oralis [4]; Rottlerin Amt. 2.5 μg,49.4%
same,Cell Viability,S. oralis [4]; Rottlerin Amt. 5 μg,41.1%
same,Cell Viability,S. oralis [4]; Rottlerin Amt. 10 μg,25.9%
same,Cell Viability,S. oralis [4]; Rottlerin Amt. 12.5 μg,19.9%
same,cell viability of S. oralis,S. oralis [4]; [5],significantly negatively affected
same,A. viscosus growth (OD),"A. viscosus; 10 μM, exposure time 1 hour",0.105 OD
same,A. viscosus growth (OD),"A. viscosus; 10 μM, exposure time 2 hours",0.112 OD
same,A. viscosus growth (OD),"A. viscosus; 10 μM, exposure time 3 hours",0.104 OD
same,A. viscosus growth (OD),"A. viscosus; 10 μM, exposure time 4 hours",0.093 OD
same,A. viscosus growth (OD),"A. viscosus; 10 μM, exposure time 5 hours",0.091 OD
same,A. viscosus growth (OD),"A. viscosus; 10 μM, exposure time 6 hours",0.087 OD
same,A. viscosus growth (OD),"A. viscosus; 10 μM, exposure time 7 hours",0.084 OD
same,A. viscosus growth (OD),"A. viscosus; 10 μM, exposure time 8 hours",0.085 OD
same,A. viscosus growth (OD),"A. viscosus; 10 μM, exposure time 9 hours",0.082 OD
same,A. viscosus growth (OD),"A. viscosus; 10 μM, exposure time 10 hours",0.079 OD
same,A. viscosus growth (OD),"A. viscosus; 20 μM, exposure time 1 hour",0.105 OD
same,A. viscosus growth (OD),"A. viscosus; 20 μM, exposure time 2 hours",0.122 OD
same,A. viscosus growth (OD),"A. viscosus; 20 μM, exposure time 3 hours",0.121 OD
same,A. viscosus growth (OD),"A. viscosus; 20 μM, exposure time 4 hours",0.115 OD
same,A. viscosus growth (OD),"A. viscosus; 20 μM, exposure time 5 hours",0.113 OD
same,A. viscosus growth (OD),"A. viscosus; 20 μM, exposure time 6 hours",0.106 OD
same,A. viscosus growth (OD),"A. viscosus; 20 μM, exposure time 7 hours",0.1 OD
same,A. viscosus growth (OD),"A. viscosus; 20 μM, exposure time 8 hours",0.097 OD
same,A. viscosus growth (OD),"A. viscosus; 20 μM, exposure time 9 hours",0.091 OD
same,A. viscosus growth (OD),"A. viscosus; 20 μM, exposure time 10 hours",0.086 OD
same,growth of bacteria compared to an untreated control,"A. viscosus; A. viscosus, low concentrations of rottlerin (Table 2)",significantly reduced
